Earlier results as cited in PubChem BioAssay AID1259409 (Chemical Carcinogenesis Research Information System (CCRIS), 2018).

System: rodent chemically induced tumor inhibition, incidence and multiplicity
Assay: CCRIS tumor inhibitor studies

## COc1cc(/C=C/C(=O)CC(=O)/C=C/c2ccc(O)c(OC)c2)ccc1O
Carcinogen: BENZO[A]PYRENE, 50-32-8, Dose [Inhibitor]: 0, 10 UMOL IN ACETONE APPLIED 120, 60 AND 5 MIN PRIOR TO CARCINOGEN DOSE (STUDY DURATION: 24 WK), Route [Inhibitor]: DERMAL, Species: MOUSE, Strain/Sex: CD-1/FEMALE, Target Tissue: Type of Lesion: SKIN: TUMORS, Dose [Carcinogen]: 200 NMOL ONCE, Promoter: 12-O-TETRADECANOYLPHORBOL-13-ACETATE, 16561-29-8
  tumour outcome (control, treated, inhibition, significance): 96%, 77%, 20%, not calculated
Carcinogen: METHYL(ACETOXYMETHYL)NITROSAMINE, 56856-83-8, Dose [Inhibitor]: 0, 5% IN DIET FOR DURATION OF STUDY BEGINNING 2 WK PRIOR TO CARCINOGEN TREATMENT (STUDY DURATION: 13 MO), Route [Inhibitor]: ORAL, Species: HAMSTER, Strain/Sex: SYRIAN/FEMALE, Target Tissue: Type of Lesion: ORAL: CAVITY, Dose [Carcinogen]: 2 MG/KG BW APPLIED TO RIGHT CHEEK POUCH 2/MO FOR 6 MO, Promoter: NONE USED
  tumour outcome (control, treated, inhibition, significance): 14/15 (93%), 3/16 (19%), 80%, p<0.001
Carcinogen: N-ETHYL-N'-NITRO-N-NITROSOGUANDINDE, 4245-77-6, Dose [Inhibitor]: 0, 1% COMMERCIAL GRADE CURCUMIN IN DIET FOR 16 WK BEGINNING 1 WK POST CARCINOGEN TREATMENT (STUDY DURATION: 20 WK), Route [Inhibitor]: ORAL, Species: MOUSE, Strain/Sex: C57BL/MALE, Target Tissue: Type of Lesion: DUODENUM: ADENOMA, Dose [Carcinogen]: 120 MG/L IN DRINKING WATER FOR 4 WK, Promoter: NONE USED
  tumour outcome (control, treated, inhibition, significance): 45%, 28%, 38%, not significant
Carcinogen: N-ETHYL-N'-NITRO-N-NITROSOGUANIDINE, 4245-77-6, Dose [Inhibitor]: 0, 0.5% COMMERCIAL GRADE CURCUMIN IN DIET FOR 16 WK BEGINNING 1 WK POST CARCINOGEN TREATMENT (STUDY DURATION: 20 WK), Route [Inhibitor]: ORAL, Species: MOUSE, Strain/Sex: C57BL/MALE, Target Tissue: Type of Lesion: DUODENUM: ADENOCARCINOMA, Dose [Carcinogen]: 120 MG/L IN DRINKING WATER FOR 4 WK, Promoter: NONE USED
  tumour outcome (control, treated, inhibition, significance): 6%, 4%, 33%, not significant
Carcinogen: N-ETHYL-N'-NITRO-N-NITROSOGUANIDINE, 4245-77-6, Dose [Inhibitor]: 0, 0.5% COMMERCIAL GRADE CURCUMIN IN DIET FOR 16 WK BEGINNING 1 WK POST CARCINOGEN TREATMENT (STUDY DURATION: 20 WK), Route [Inhibitor]: ORAL, Species: MOUSE, Strain/Sex: C57BL/MALE, Target Tissue: Type of Lesion: DUODENUM: ADENOMA, Dose [Carcinogen]: 120 MG/L IN DRINKING WATER FOR 4 WK, Promoter: NONE USED
  tumour outcome (control, treated, inhibition, significance): 45%, 20%, 56%, not significant
Carcinogen: N-ETHYL-N'-NITRO-N-NITROSOGUANIDINE, 4245-77-6, Dose [Inhibitor]: 0, 1% COMMERCIAL GRADE CURCUMIN IN DIET FOR 16 WK BEGINNING 1 WK POST CARCINOGEN TREATMENT (STUDY DURATION: 20 WK), Route [Inhibitor]: ORAL, Species: MOUSE, Strain/Sex: C57BL/MALE, Target Tissue: Type of Lesion: DUODENUM: ADENOCARCINOMA, Dose [Carcinogen]: 120 MG/L IN DRINKING WATER FOR 4 WK, Promoter: NONE USED
  tumour outcome (control, treated, inhibition, significance): 6%, 4%, 33%, not significant
Carcinogen: N-ETHYL-N'-NITRO-N-NITROSOGUANIDINE, 4245-77-6, Dose [Inhibitor]: 0, 2% COMMERCIAL GRADE CURCUMIN IN DIET FOR 16 WK BEGINNING 1 WK POST CARCINOGEN TREATMENT (STUDY DURATION: 20 WK), Route [Inhibitor]: ORAL, Species: MOUSE, Strain/Sex: C57BL/MALE, Target Tissue: Type of Lesion: DUODENUM: ADENOCARCINOMA, Dose [Carcinogen]: 120 MG/L IN DRINKING WATER FOR 4 WK, Promoter: NONE USED
  tumour outcome (control, treated, inhibition, significance): 6%, 5%, 17%, not significant
Carcinogen: N-ETHYL-N'-NITRO-N-NITROSOGUANIDINE, 4245-77-6, Dose [Inhibitor]: 0, 2% COMMERCIAL GRADE CURCUMIN IN DIET FOR 16 WK BEGINNING 1 WK POST CARCINOGEN TREATMENT (STUDY DURATION: 20 WK), Route [Inhibitor]: ORAL, Species: MOUSE, Strain/Sex: C57BL/MALE, Target Tissue: Type of Lesion: DUODENUM: ADENOMA, Dose [Carcinogen]: 120 MG/L IN DRINKING WATER FOR 4 WK, Promoter: NONE USED
  tumour outcome (control, treated, inhibition, significance): 45%, 27%, 40%, not significant
Carcinogen: N-METHYL-N'-NITRO-N-NITROSOGUANIDINE, 70-25-7, Route [Inhibitor]: 0, 0.05% IN DIET FOR 55 WK BEGINNING IMMEDIATELY POST-CARCINOGEN TREATMENT, THEN SWITCHED TO BASAL DIET FOR 4 WK (STUDY, Species: RAT, Strain/Sex: WISTAR/MALE, Target Tissue: Type of Lesion: GLANDULAR STOMACH: ADENOCARCINOMA, Dose [Carcinogen]: 100 PPM IN DRINKING WATER FOR 8 WK, Promoter: SODIUM CHLORIDE, 7647-14-5
  tumour outcome (control, treated, inhibition, significance): 1/29 (3%), 2/29 (7%), -133%, not significant
Carcinogen: N-METHYL-N'-NITRO-N-NITROSOGUANIDINE, 70-25-7, Route [Inhibitor]: 0, 0.2% IN DIET FOR 55 WK BEGINNING IMMEDIATELY POST-CARCINOGEN TREATMENT, THEN SWITCHED TO BASAL DIET FOR 4 WK (STUDY D, Species: RAT, Strain/Sex: WISTAR/MALE, Target Tissue: Type of Lesion: GLANDULAR STOMACH: ADENOCARCINOMA, Dose [Carcinogen]: 100 PPM IN DRINKING WATER FOR 8 WK, Promoter: SODIUM CHLORIDE, 7647-14-5
  tumour outcome (control, treated, inhibition, significance): 1/29 (3%), 2/30 (7%), -133%, not significant
Carcinogen: NONE USED, Dose [Inhibitor]: 0, 2% IN DIET FROM 12 MO OF AGE (STUDY DURATION: 15 MO), Route [Inhibitor]: ORAL, Species: MOUSE, Strain/Sex: C3H/FEMALE, Target Tissue: Type of Lesion: MAMMARY GLAND: TUMOR, Promoter: NONE USED
  tumour outcome (control, treated, inhibition, significance): 12/20 (60%), 8/18 (44%), 27%, not calculated
Carcinogen: NONE USED, Dose [Inhibitor]: 0, 5% IN DIET FROM 6 MO OF AGE (STUDY DURATION: 15 MO), Route [Inhibitor]: ORAL, Species: MOUSE, Strain/Sex: C3H/FEMALE, Target Tissue: Type of Lesion: MAMMARY GLAND: TUMOR, Promoter: NONE USED
  tumour outcome (control, treated, inhibition, significance): 12/20 (60%), 0/15 (0%), 100%, not calculated
Carcinogen: NONE USED, Dose [Inhibitor]: 0, 5% IN DIET FROM 8 MO OF AGE (STUDY DURATION: 15 MO), Route [Inhibitor]: ORAL, Species: MOUSE, Strain/Sex: C3H/FEMALE, Target Tissue: Type of Lesion: MAMMARY GLAND: TUMOR, Promoter: NONE USED
  tumour outcome (control, treated, inhibition, significance): 12/20 (60%), 7/21 (33%), 45%, not calculated
Carcinogen: NONE USED, Dose [Inhibitor]: O, 5% IN DIET FROM 12 MO OF AGE (STUDY DURATION: 15 MO), Route [Inhibitor]: ORAL, Species: MOUSE, Strain/Sex: C3H/FEMALE, Target Tissue: Type of Lesion: MAMMARY GLAND: TUMOR, Promoter: NONE USED
  tumour outcome (control, treated, inhibition, significance): 12/20 (60%), 5/17 (29%), 52%, not calculated
